Assay results as given in patent US20240327382A1 (ALMAC DISCOVERY LIMITED, priority 2021, published 2024).

biological target: T1, Full-length USP19 (Homo sapiens, UniProt O94966); assay: USP19 fluorescence polarisation (FP) assay, Ubiquitin-Lys-TAMRA substrate; type: biochemical; settings: average of at least two duplicate experiments
T1 construct: Full-length USP19 was purchased from Boston Biochem (E-576); purchased Boston Biochem E-576
T1 sequence (O94966 1-1318): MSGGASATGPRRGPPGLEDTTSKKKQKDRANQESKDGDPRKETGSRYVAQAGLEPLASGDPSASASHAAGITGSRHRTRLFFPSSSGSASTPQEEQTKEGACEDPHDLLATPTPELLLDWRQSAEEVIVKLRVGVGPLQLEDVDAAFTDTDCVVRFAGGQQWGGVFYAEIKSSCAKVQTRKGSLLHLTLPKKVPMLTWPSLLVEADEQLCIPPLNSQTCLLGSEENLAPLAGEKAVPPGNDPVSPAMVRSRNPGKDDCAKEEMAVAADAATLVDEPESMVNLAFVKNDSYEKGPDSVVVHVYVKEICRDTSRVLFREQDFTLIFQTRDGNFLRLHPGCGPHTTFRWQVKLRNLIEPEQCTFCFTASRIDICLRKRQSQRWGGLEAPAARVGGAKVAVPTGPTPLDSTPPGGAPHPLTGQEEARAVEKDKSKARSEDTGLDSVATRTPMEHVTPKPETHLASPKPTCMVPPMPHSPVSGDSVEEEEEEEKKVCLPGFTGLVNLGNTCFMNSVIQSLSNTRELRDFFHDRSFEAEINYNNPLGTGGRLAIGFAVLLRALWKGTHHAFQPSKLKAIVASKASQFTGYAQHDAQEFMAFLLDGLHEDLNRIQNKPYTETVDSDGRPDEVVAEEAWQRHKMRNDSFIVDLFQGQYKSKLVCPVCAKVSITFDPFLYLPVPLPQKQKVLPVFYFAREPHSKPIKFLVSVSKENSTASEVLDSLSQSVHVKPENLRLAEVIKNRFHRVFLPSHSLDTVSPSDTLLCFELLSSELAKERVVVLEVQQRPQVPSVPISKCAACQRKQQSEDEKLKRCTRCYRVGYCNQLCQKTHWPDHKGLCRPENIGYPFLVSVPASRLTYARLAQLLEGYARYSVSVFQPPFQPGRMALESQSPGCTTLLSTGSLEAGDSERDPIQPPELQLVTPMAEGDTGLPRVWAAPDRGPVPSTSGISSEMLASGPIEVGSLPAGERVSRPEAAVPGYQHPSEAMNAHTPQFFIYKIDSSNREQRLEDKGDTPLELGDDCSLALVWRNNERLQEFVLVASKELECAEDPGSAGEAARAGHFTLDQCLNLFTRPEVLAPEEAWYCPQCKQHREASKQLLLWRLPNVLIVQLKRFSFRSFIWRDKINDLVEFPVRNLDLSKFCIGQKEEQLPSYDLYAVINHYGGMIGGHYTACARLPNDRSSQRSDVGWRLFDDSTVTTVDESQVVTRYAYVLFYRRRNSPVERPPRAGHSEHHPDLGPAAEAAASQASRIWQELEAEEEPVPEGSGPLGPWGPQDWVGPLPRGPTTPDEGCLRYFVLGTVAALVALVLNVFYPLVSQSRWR
Outline: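 Full-length human USP19 (added at 2.5 nM) was preincubated 30 min at RT with inhibitor (serial dilutions 200 μM to 2 μM) in 50 mM HEPES pH 7.4, 150 mM NaCl, 5 mM DTT, 0.05% BSA, 0.05% CHAPS. Ubiquitin-Lys-TAMRA isopeptide substrate (added at 500 nM) started the reaction, and FP (Ex 530/Em 575 nm) was read every 15 min over 90 min. IC50 came from non-linear regression of signal normalised to no-compound control, averaged over at least two duplicate experiments.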

Row | Compound | IC50
1 | CC(C)N[C@@H]1CCN(C(=O)N2CC[C@@H](Cn3cnc4ccc(F)cc4c3=O)C3(CCCC3)C2)[C@H](c2cc(F)ccc2F)C1 [Example 189, 3-(((R)-7-((2S,4R)-2-(2,5-Difluorophenyl)-4-(isopropylamino)piperidine-1-carbonyl)-7-azaspiro[4.5]decan-10-yl)methyl)-6-fluoroquinazolin-4(3H)-one] | < 10 nM
2 | COc1ccccc1-c1cc(=O)n(C[C@]2(OC)CCN(C(=O)N3CC[C@@H](NC(C)C)C[C@H]3c3cc(F)ccc3F)CC23CCCC3)cn1 [Example 190, 3-(((S)-7-((2S,4R)-2-(2,5-Difluorophenyl)-4-(isopropylamino)piperidine-1-carbonyl)-10-methoxy-7-azaspiro[4.5]decan-10-yl)methyl)-6-(2-methoxyphenyl)pyrimidin-4(3H)-one] | < 10 nM
3 | CN[C@@H]1CCN(C(=O)N2CC[C@@H](Cn3cnc4ccc(F)cc4c3=O)C3(CCCC3)C2)[C@H](c2ccc(F)cc2F)C1 [Example 191, 3-(((R)-7-((2S,4R)-2-(2,4-Difluorophenyl)-4-(methylamino)piperidine-1-carbonyl)-7-azaspiro[4.5]decan-10-yl)methyl)-6-fluoroquinazolin-4(3H)-one] | < 10 nM
4 | CC(C)N[C@@H]1CCN(C(=O)N2CC[C@@H](Cn3cnc(-c4ccccc4)cc3=O)C3(CCCC3)C2)[C@H](c2cc(F)cc(F)c2)C1 [Example 192, 3-(((R)-7-((2S,4R)-2-(3,5-Difluorophenyl)-4-(isopropylamino)piperidine-1-carbonyl)-7-azaspiro[4.5]decan-10-yl)methyl)-6-phenylpyrimidin-4(3H)-one] | < 10 nM
5 | Cc1cccnc1CN[C@@H]1CCN(C(=O)N2CC[C@@H](Cn3cnc(-c4ccccc4)cc3=O)C3(CCCC3)C2)[C@H](c2ccccc2)C1 [Example 193, 3-(((R)-7-((2S,4R)-4-(((3-Methylpyridin-2-yl)methyl)amino)-2-phenylpiperidine-1-carbonyl)-7-azaspiro[4.5]decan-10-yl)methyl)-6-phenylpyrimidin-4(3H)-one] | 10 to 100 nM
6 | Cc1cc(C)nc(CN[C@@H]2CCN(C(=O)N3CC[C@@H](Cn4cnc(-c5ccccc5)cc4=O)C4(CCCC4)C3)[C@H](c3ccccc3)C2)n1 [Example 194, 3-(((R)-7-((2S,4R)-4-(((4,6-Dimethylpyrimidin-2-yl)methyl)amino)-2-phenylpiperidine-1-carbonyl)-7-azaspiro[4.5]decan-10-yl)methyl)-6-phenylpyrimidin-4(3H)-one] | < 10 nM
7 | COCCN[C@@H]1CCN(C(=O)N2CC[C@@H](Cn3cnc(-c4ccccc4)cc3=O)C3(CCCC3)C2)[C@H](c2cccc(F)c2)C1 [Example 195, 3-(((R)-7-((2S,4R)-2-(3-Fluorophenyl)-4-((2-methoxyethyl)amino)piperidine-1-carbonyl)-7-azaspiro[4.5]decan-10-yl)methyl)-6-phenylpyrimidin-4(3H)-one] | < 10 nM
8 | O=C(N1CC[C@@H](Cn2cnc(-c3ccccc3)cc2=O)C2(CCCC2)C1)N1CC[C@@H](NCCF)C[C@H]1c1cccc(F)c1 [Example 196, 3-(((R)-7-((2S,4R)-4-((2-Fluoroethyl)amino)-2-(3-fluorophenyl)piperidine-1-carbonyl)-7-azaspiro[4.5]decan-10-yl)methyl)-6-phenylpyrimidin-4(3H)-one] | < 10 nM
9 | O=C1OCCN1[C@@H]1CCN(C(=O)N2CC[C@@H](Cn3cnc(-c4ccccc4)cc3=O)C3(CCCC3)C2)[C@H](c2cccc(F)c2)C1 [Example 197, 3-((2S,4R)-2-(3-Fluorophenyl)-1-((R)-10-((6-oxo-4-phenylpyrimidin-1(6H)-yl)methyl)-7-azaspiro[4.5]decane-7-carbonyl)piperidin-4-yl)oxazolidin-2-one] | 10 to 100 nM
10 | CN[C@@H]1CCN(C(=O)N2CC[C@@H](Cn3cnc4ccc(Cl)cc4c3=O)C3(CCCC3)C2)[C@H](c2cc(F)ccc2F)C1 [Example 198, 6-Chloro-3-(((R)-7-((2S,4R)-2-(2,5-difluorophenyl)-4-(methylamino)piperidine-1-carbonyl)-7-azaspiro[4.5]decan-10-yl)methyl)quinazolin-4(3H)-one] | < 10 nM
11 | CN[C@@H]1CCN(C(=O)N2CC[C@@H](Cn3cnc4ccccc4c3=O)C3(CCCC3)C2)[C@H](c2cc(F)ccc2F)C1 [Example 199, 3-(((R)-7-((2S,4R)-2-(2,5-Difluorophenyl)-4-(methylamino)piperidine-1-carbonyl)-7-azaspiro[4.5]decan-10-yl)methyl)quinazolin-4(3H)-one] | < 10 nM
12 | C[C@H]1CN(C(=O)N2CC[C@@H](Cn3cnc4ccc(F)cc4c3=O)C3(CCCC3)C2)[C@H](c2cc(F)ccc2F)CO1 [Example 200, 3-(((R)-7-((2S,5R)-5-(2,5-Difluorophenyl)-2-methylmorpholine-4-carbonyl)-7-azaspiro[4.5]decan-10-yl)methyl)-6-fluoroquinazolin-4(3H)-one] | 10 to 100 nM
13 | C[C@H]1CN(C(=O)N2CC[C@@H](Cn3cnc(-c4ccccc4)cc3=O)C3(CCCC3)C2)[C@H](c2cc(F)ccc2F)CO1 [Example 201, 3-(((R)-7-((2,5R)-5-(2,5-Difluorophenyl)-2-methylmorpholine-4-carbonyl)-7-azaspiro[4.5]decan-10-yl)methyl)-6-phenylpyrimidin-4(3H)-one] | < 10 nM
